Reference: US20130158075A1, “HETEROCYCLIC COMPOUNDS AS DGAT1 INHIBITORS” (PIRAMAL ENTERPRISES LIMITED, priority 2010, published 2013)

What follows are molecules tested against T1, hDGAT1 (Homo sapiens, UniProt O75907) (assay: In-vitro DGAT1 assay with hDGAT1 microsomes from Sf9 cells (14C oleoyl CoA, scintillation counting)). Details: at 1 μM.
T1 construct: made in house; host or cells: Sf9 insect cells (baculovirus); microsomal fraction
T1 sequence (O75907 1-488): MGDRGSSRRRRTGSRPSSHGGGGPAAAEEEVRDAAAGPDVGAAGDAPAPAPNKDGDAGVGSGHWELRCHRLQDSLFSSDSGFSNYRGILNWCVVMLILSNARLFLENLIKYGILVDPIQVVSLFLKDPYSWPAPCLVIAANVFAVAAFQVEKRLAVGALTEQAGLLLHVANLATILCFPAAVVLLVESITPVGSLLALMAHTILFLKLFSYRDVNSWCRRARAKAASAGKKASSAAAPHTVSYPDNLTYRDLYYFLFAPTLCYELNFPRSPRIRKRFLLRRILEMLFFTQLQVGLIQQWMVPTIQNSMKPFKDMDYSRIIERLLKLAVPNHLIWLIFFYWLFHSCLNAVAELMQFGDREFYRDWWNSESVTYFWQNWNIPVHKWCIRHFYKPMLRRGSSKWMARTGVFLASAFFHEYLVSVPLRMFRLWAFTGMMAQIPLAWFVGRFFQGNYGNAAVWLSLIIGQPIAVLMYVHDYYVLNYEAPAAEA
Type: biochemical
Method: Sf9 cells were grown in T25 flasks containing Graces's Insect media with 10% FBS with antibiotic (100 units/mL penicillin, 100 μg/mL streptomycin sulphate, 0.25 μg/mL Amptotericin B as Fungizone) grown in a 27° C. incubator.
hDGAT10RF expression clone (RZPDo839C09146 in pDEST vector) was obtained from RZPD, German Science Center for Genomes research, Germany. hDGAT1 bacmid DNA was obtained by transformation of the hDGAT1 expression clone into DH10Bac E. coli competent cells. Approximately 1 μg of hDGAT1 bacmid DNA was infected into Sf9 cells with Cellfectin (Invitrogen) reagent. Following infection, Sf9 cells were incubated at 27° C. for 30 min. Five hours after infection, the media was replaced with growth media containing antibiotics (100 units/mL penicillin, 100 μg/mL streptomycin sulphate, 0.25 μg/mL Amptotericin B as Fungizone) and incubated at 27° C. for 72 h. The supernatant containing the virus was centrifuged at 1500×g for 5 min, passed through 0.22 μm filter, and subsequently stored at 4° C. The virus was further amplified three more times by re-infection of Sf9 cells and the viral titer was determined by plaque assay.
Sf9 cells were seeded in spinner flasks on day 0 at a cell density of 1×10^6 and infected on day 1 with hDGAT1 baculovirus at a multiplicity of infection (MOI) of 5 and a cell density of 2×10^6. On day 3 (or 66-72 h), cells were harvested and centrifuged at 2500×g for 10 min. Pellet was resuspended in lysis buffer (100 mM sucrose, 50 mM KCl, 40 mM KH2PO4, 30 mM EDTA, pH 7.2) and passed through 21-gauge needle approximately 10 times. The mixture was centrifuged at 12,000 rpm in a Sigma 12158-H rotor at 4° C. for 30 min. The supernatant was subjected to centrifugation at 35,000 rpm in a Beckman Ti-45 rotor at 4° C. for 1 h. The resultant pellet containing the microsomes wasere resuspended overnight in 1 mL of lysis buffer and total protein concentration was estimated using Bradford Reagent. Microsomes were aliquoted and stored at −80° C.
Frozen aliquots of hDGAT1 containing microsomes were thawed (5-10 mg/mL total protein) on ice and diluted to a working stock of 1 mg/mL with DGAT Assay Buffer (DAB). The DGAT reaction assay was performed by following the procedure described in U.S. Pat. No. 6,607,893 with some modifications that are described below.
1 mL stock solution of DGAT1 substrate mixture contains 5.6 μL of ^14C oleoyl CoA (16.8 nCi) and […] of 1,2-dioleoyl-sn-glycerol (1228.5 μM) 1,2-dioleoyl-sn-glycerol stock (19.5 mM) was prepared by dissolving 25 mg of 1,2-dioleoyl-sn-glycerol (Sigma, US) in 2060 μL of acetone.
The assay was performed in duplicates in a reaction volume of 100 μL.
The reaction was started by the addition of 2.5 μL of 1 mg/mL of microsomes (iv) to the mixture of (i), (ii) and (iii), and incubated at 37° C. for 10 min. The reaction was stopped by the addition of 300 μL of Alkaline Ethanol Stop Solution Mix [AESSM; 12.5% of 100% non-denatured ethanol, 10% deionized water, 2.5% 1N NaOH, 75% stop solution (78.4% isopropanol, 19.6% n-heptane, 2% deionized water)] followed by addition of 600 μL of n-heptane. The mixture was vortexed and the triglycerides formed were extracted into the organic heptane phase. 250 μL of the heptane phase was added into 4 mL scintillation cocktail (66.72% toluene, 33.3% TritonX-100, 0.5% PPO, 0.02% POPOP) and counted on a liquid scintillation counter for 1 min. Data was collected and plotted as a function of concentration in nM versus percentage inhibition of hDGAT1 by the compounds of present invention.

SMILES | Percentage inhibition of hDGAT1
CC(C)(Cc1ncc(-c2ccc(NC(=O)c3ccc(-c4ccccc4)cc3)cc2)o1)C(=O)O [Example 128, 3-(5-(4-Biphenyl-4-ylcarboxamidophenyl)oxazol-2-yl)-2,2-dimethylpropanoic acid] | + (20-50% Inhibition)
Cc1ccc(Cl)cc1NC(=O)Nc1ccc(-c2cnc(C3CCC(C(=O)O)CC3)s2)cc1 (stereo not shown) [Example 164] | ++ (>50 % Inhibition)

Same assay, conditions: read-out: Percentage inhibition of hDGAT1

inhibition at 1 µM | SMILES
> 50% | O=C(Nc1ccc(-c2cnc(C3CCC(C(=O)O)CC3)s2)cc1)Nc1cccc(C(F)(F)F)c1 (stereo not shown) [Example 134, 4-(5-(4-(3-(3-(Trifluoromethyl)phenyl)ureido)phenyl)thiazol-2-yl)cyclohexane carboxylic acid]
> 50% | O=C(Nc1ccc(-c2cnc(C3CCC(C(=O)O)CC3)s2)cc1)Nc1cccc(Cl)c1 (stereo not shown) [Example 144, 4-(5-(4-(3-(3-Chlorophenyl)ureido)phenyl)thiazol-2-yl)cyclohexane carboxylic acid]
> 50% | O=C(Nc1ccc(-c2cnc(C3CCC(C(=O)O)CC3)s2)cc1)Nc1ccc(C(F)(F)F)cc1Cl (stereo not shown) [Example 148, 4-(5-(4-(3-(2-Chloro-4-(trifluoromethyl)phenyl)ureido)phenyl)thiazol-2-yl)cyclohexanecarboxylic acid]
> 50% | Cc1ccc(Cl)c(NC(=O)Nc2ccc(-c3cnc(C4CCC(C(=O)O)CC4)s3)cc2)c1 (stereo not shown) [Example 150, 4-(5-(4-(3-(2-Chloro-5-methylphenyl)ureido)phenyl)thiazol-2-yl)cyclohexane carboxylic acid]
> 50% | O=C(Nc1ccc(-c2cnc(C3CCC(C(=O)O)CC3)s2)cc1)Nc1cccc(Cl)c1F (stereo not shown) [Example 152, 4-(5-(4-(3-(3-Chloro-2-fluorophenyl)ureido)phenyl)thiazol-2-yl)cyclohexane carboxylic acid]
> 50% | O=C(Nc1ccc(-c2cnc(C3CCC(C(=O)O)CC3)s2)cc1)Nc1c(Cl)cccc1C(F)(F)F (stereo not shown) [Example 158, 4-(5-(4-(3-(2-Chloro-6-(trifluoromethyl)phenyl)ureido)phenyl)thiazol-2-yl)cyclohexanecarboxylic acid]
> 50% | O=C(Nc1ccc(-c2cnc(C3CCC(C(=O)O)CC3)s2)cc1)Nc1ccc(Cl)cc1C(F)(F)F (stereo not shown) [Example 160, 4-(5-(4-(3-(4-Chloro-2-(trifluoromethyl)phenyl)ureido)phenyl)thiazol-2-yl)cyclohexanecarboxylic acid]
> 50% | Cc1cccc(Cl)c1NC(=O)Nc1ccc(-c2cnc(C3CCC(C(=O)O)CC3)s2)cc1 (stereo not shown) [Example 162, 4-(5-(4-(3-(2-Chloro-6-methylphenyl)ureido)phenyl)thiazol-2-yl)cyclohexane carboxylic acid]
> 50% | O=C(Nc1ccc(-c2cnc(C3CCC(C(=O)O)CC3)s2)cc1)Nc1ccccc1C(F)(F)F (stereo not shown) [Example 166, 4-(5-(4-(3-(2-(Trifluoromethyl)phenyl)ureido)phenyl)thiazol-2-yl)cyclohexane carboxylic acid]
> 50% | O=C(Nc1ccc(-c2cnc(C3CCC(C(=O)O)CC3)s2)cc1)Nc1ccccc1OC(F)(F)F (stereo not shown) [Example 168, 4-(5-(4-(3-(2-(Trifluoromethoxy)phenyl)ureido)phenyl)thiazol-2-yl)cyclo hexanecarboxylic acid]
> 50% | O=C(Nc1ccc(-c2cnc(C3CCC(C(=O)O)CC3)s2)cc1)Nc1ccc(Cl)cc1F (stereo not shown) [Example 172, 4-(5-(4-(3-(4-Chloro-2-fluorophenyl)ureido)phenyl)thiazol-2-yl)cyclohexane carboxylic acid]
20 to 50% | O=C(Nc1ccc(-c2cnc(C3CCC(C(=O)O)CC3)s2)cc1)Nc1c(F)cccc1C(F)(F)F (stereo not shown) [Example 176, 4-(5-(4-(3-(2-Fluoro-6-(trifluoromethyl)phenyl)ureido)phenyl)thiazol-2-yl)cyclohexanecarboxylic acid]

The remaining lines, values behind:

SMILES | inhibition at 1 µM
CC(C)(Cc1ncc(-c2ccc(NC(=O)Nc3ccc(Cl)cc3Oc3ccccc3)cc2)o1)C(=O)O [Example 124, 3-(5-(4-(3-(4-Chloro-2-phenoxyphenyl)ureido)phenyl)oxazol-2-yl)-2,2-dimethyl propanoic acid] | > 50%
Cc1ccc(NC(=O)Nc2ccc(-c3cnc(C4CCC(C(=O)O)CC4)s3)cc2)cc1 (stereo not shown) [Example 136, 4-(5-(4-(3-p-Tolylureido)phenyl)thiazol-2-yl)cyclohexanecarboxylic acid] | > 50%
O=C(Nc1ccc(-c2cnc(C3CCC(C(=O)O)CC3)s2)cc1)Nc1ccc(F)cc1F (stereo not shown) [Example 138, 4-(5-(4-(3-(2,4-Difluorophenyl)ureido)phenyl)thiazol-2-yl)cyclohexane carboxylic acid] | > 50%
O=C(Nc1ccc(-c2cnc(C3CCC(C(=O)O)CC3)s2)cc1)Nc1ccccc1F (stereo not shown) [Example 140, 4-(5-(4-(3-(2-Fluorophenyl)ureido)phenyl)thiazol-2-yl)cyclohexanecarboxylic acid] | > 50%
O=C(Nc1ccc(-c2cnc(C3CCC(C(=O)O)CC3)s2)cc1)NC1CCCCC1 (stereo not shown) [Example 142, 4-(5-(4-(3-Cyclohexylureido)phenyl)thiazol-2-yl)cyclohexanecarboxylic acid] | > 50%
O=C(Nc1ccc(Cl)cc1)Nc1ccc(-c2cnc(C3CCC(C(=O)O)CC3)s2)cc1 (stereo not shown) [Example 146, 4-(5-(4-(3-(4-Chlorophenyl)ureido)phenyl)thiazol-2-yl)cyclohexane carboxylic acid] | > 50%
COc1ccc(NC(=O)Nc2ccc(-c3cnc(C4CCC(C(=O)O)CC4)s3)cc2)c(C)c1 (stereo not shown) [Example 154, 4-(5-(4-(3-(4-Methoxy-2-methylphenyl)ureido)phenyl)thiazol-2-yl)cyclo hexanecarboxylic acid] | > 50%
O=C(Nc1ccc(-c2cnc(C3CCC(C(=O)O)CC3)s2)cc1)Nc1ccc2c(c1)OCO2 (stereo not shown) [Example 156, 4-(5-(4-(3-Benzo[d][1,3]-dioxol-5-ylureido)phenyl)thiazol-2-yl)cyclohexane carboxylic acid] | > 50%
O=C(Nc1ccc(Oc2ccccc2)cc1)Nc1ccc(-c2cnc(C3CCC(C(=O)O)CC3)s2)cc1 (stereo not shown) [Example 170, 4-(5-(4-(3-(4-Phenoxyphenyl)ureido)phenyl)thiazol-2-yl)cyclohexane carboxylic acid] | > 50%
Cc1ccc(F)c(NC(=O)Nc2ccc(-c3cnc(C4CCC(C(=O)O)CC4)s3)cc2)c1 (stereo not shown) [Example 174, 4-(5-(4-(3-(2-Fluoro-5-methylphenyl)ureido)phenyl)thiazol-2-yl)cyclohexane carboxylic acid] | > 50%
O=C(Nc1ccc(-c2cnc(C3CCC(C(=O)O)CC3)s2)cc1)Nc1cccc(F)c1 (stereo not shown) [Example 178, 4-(5-(4-(3-(3-Fluorophenyl)ureido)phenyl)thiazol-2-yl)cyclohexanecarboxylic acid] | > 50%
